Source: patent US20250248979A1, “NOVEL GPX4 INHIBITORS AND USES THEREOF” (THE TRUSTEES OF COLUMBIA UNIVERSITY IN THE CITY OF NEW YORK, priority 2022, published 2025)
Read-outs that look alike come from different tables or passages of the source.

How the values were obtained:
GPX4 = molecular target: T1, GPX4 (Homo sapiens, UniProt P36969); assay: GPX4 activity assay in cell lysates (NADPH-coupled); type: biochemical; set-up: endogenous in cells; host or cells: A-673 cell lysate; conditions: 2.5 μM
T1 sequence (P36969 1-170 isoform P36969-2): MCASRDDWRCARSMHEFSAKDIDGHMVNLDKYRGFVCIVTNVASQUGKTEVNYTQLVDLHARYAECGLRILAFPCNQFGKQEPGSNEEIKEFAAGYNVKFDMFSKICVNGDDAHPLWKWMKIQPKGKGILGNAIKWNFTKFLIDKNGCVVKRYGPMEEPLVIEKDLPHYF
Method in brief: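 Native GPX4 in lysates of A-673 cells grown with 20 nM sodium selenite; lysate preincubated with compound 45 min at 37 °C in pH 8.0 buffer with 3 mM GSH, 0.5 mM NADPH and glutathione reductase. Reaction started with phosphatidylcholine hydroperoxide; NADPH consumption followed at 340 nm over 25 min; triplicates.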

HT-1080 cells = assay: Cellular dose response assay, HT-1080 with and without Fer-1; type: cell-based, human; conditions: for Selectivity: ferroptosis selectivity, IC50 with Fer-1 / IC50
From the text: HT-1080 (human [Homo sapiens] […] fibrosarcoma), A-673 (human [Homo sapiens] […] Ewing's sarcoma), and SK-HEP-1 (human [Homo sapiens] […] hepatic adenocarcinoma), cells were obtained from ATCC. Huh7 (human [Homo sapiens] […] hepatocellular carcinoma), HLF (human [Homo sapiens] […] hepatocellular carcinoma), HepG2 (human [Homo sapiens] […] hepatocellular carcinoma), cells were obtained from the Cancer Cell Bank at Columbia University Irving Medical Center. HT-1080, A-673, Huh-7, and HLF cells were grown in Dulbecco's Modified Eagle Medium (DMEM) supplemented with 10% heat inactivated fetal bovine serum (HI-FBS), 1% non-essential amino acids, and 1% penicillin streptomycin. HepG2 and SK-HEP-1 cells were grown in Eagle's Minimum Essential Medium (EMEM) supplemented with 10% HI-FBS, and 1% penicillin-streptomycin. All cells were cultured at 37° C. and 5% CO2.
HT-1080, HepG2, Huh7, HLF, and SK-HEP-1 cells were seeded into opaque white 384-well plates at 1500 cells per well then incubated at 37° C. with 5% CO2 overnight. The next day, compounds of interest were dissolved in DMSO and 12-point 2-fold dilution series were prepared with and without Fer-1. Cells were treated in triplicate (final DMSO concentration of 0.4% in all wells, including DMSO-only control wells) and incubated for a further 48 hours at 37° C. and 5% CO2. Cell viability was evaluated using CellTiter-Glo (Promega G7573) and luminescence was recorded on a Victor 5 plate reader. Data were analyzed in GraphPad Prism 9 and error bars represent standard deviation values for three technical replicates in a representative experiment.

[1] = with Fer-1, Table 10, read-out: IC50 (μM) HT1080 + Fer-1
[2] = without Fer-1, Table 10, read-out: IC50 (μM) HT1080

Row | SMILES | GPX4% inhibition at 2.5 μM (GPX4) | Selectivity (HT-1080 cells) | IC50 (HT-1080 cells; [1]) | IC50 (HT-1080 cells; [2]) | also measured
1 | Cn1nc(-n2cc(CCOC(=O)CCl)nn2)c2ccc(-c3ccc(OC(F)(F)F)c(Cl)c3)cc21 [QW-764] | 25.4 ± 12.0% | – | – | – | –
2 | CCOc1ccc(-c2ccc3c(C(=O)NC(C)(C)C(C)(C)OC(=O)CCl)nn(C)c3c2)cc1Cl [QW-765] | 12.0 ± 10.7% | – | – | – | –
3 | COc1ncc(-c2ccc3c(C(=O)NC(C)(C)COC(=O)CCl)nn(C)c3c2)cc1F [QW-768] | 32.6 ± 7.9% | – | – | – | –
4 | Cn1nc(C(=O)NCC(C)(C)OC(=O)CCl)c2ccc(-c3ccc(N4CCOCC4)c(Cl)c3)cc21 [QW-775] | 36.2 ± 4.1% | – | – | – | –
5 | COc1c(Cl)cc(-c2ccc3c(C(=O)NCC(C)(C)OC(=O)CCl)nn(C)c3c2)cc1Cl [QW-778] | 30.4 ± 10.0% | – | – | – | –
6 | Cn1nc(C(=O)NCC(C)(C)OC(=O)CCl)c2ccc(-c3ccc(OC(F)(F)F)c(Cl)c3)cc21 [QW-779] | 39.1 ± 17.7% | – | – | – | –
7 | CCOc1ccc(-c2ccc3c(C(=O)NCC(C)(C)OC(=O)CCl)nn(C)c3c2)cc1Cl [QW-782] | −1.0 ± 32.8% | – | – | – | –
8 | COc1ccc(-c2ccc3c(C(=O)NCC(C)(C)OC(=O)CCl)nn(C)c3c2)cc1Br [QW-783] | −172.4 ± 10.3% | – | – | – | –
9 | Cn1nc(-n2cc(C(C)(C)COC(=O)CCl)nn2)c2ccc(-c3ccc(C(F)(F)F)c(Cl)c3)cc21 [QW-787] | 35.1 ± 29.1% | – | – | – | –
10 | Cn1nc(-n2cc(C(C)(C)CNC(=O)CCl)nn2)c2ccc(-c3ccc(N4CCOCC4)c(Cl)c3)cc21 [QW-793] | −53.4 ± 17.0% | – | – | – | –
11 | Cn1nc(C(=O)NC(C)(C)COC(=O)CCl)c2ccc(-c3ccc(C(F)(F)F)c(Cl)c3)cc21 [QW-794] | 78.5 ± 10.5% | – | – | – | –
12 | COc1c(F)cc(-c2ccc3c(C(=O)NC(C)(C)COC(=O)CCl)nn(C)c3c2)cc1Cl [QW-802] | 80.1 ± 4.7% | – | – | – | –
13 | CC(C)Oc1c(Cl)cc(-c2ccc3c(C(=O)NC(C)(C)C(C)(C)OC(=O)CCl)nn(C)c3c2)cc1Cl [QW-808] | 36.3 ± 16.1% | – | – | – | –
14 | COc1c(Cl)cc(-c2ccc3c(-n4cc(C(C)(C)COC(=O)CCl)nn4)nn(C)c3c2)cc1C(F)(F)F [QW-817] | 75.3 ± 14.5% | – | – | – | –
15 | CC(C)Oc1c(Cl)cc(-c2ccc3c(C(=O)NC(C)(C)COC(=O)CCl)nn(C)c3c2)cc1Cl [QW-820] | 71.4 ± 6.9% | – | – | – | –
16 | COc1ccc(-c2ccc3c(C(=O)NC(C)(C)COC(=O)CCl)nn(C)c3c2)c(Cl)c1Cl [QW-826] | 66.2 ± 5.4% | – | – | – | –
17 | COc1ccc(-c2ccc3c(-n4cc(C(C)(C)COC(=O)CCl)nn4)nn(C)c3c2)c(Cl)c1Cl [QW-829] | 68.7 ± 3.6% | – | – | – | –
18 | COc1cc(F)c(-c2ccc3c(C(=O)NC(C)(C)COC(=O)CCl)nn(C)c3c2)cc1Cl [QW-830] | 65.5 ± 5.9% | – | – | – | –
19 | COc1c(Cl)cc(-c2ccc3c(C(=O)NC(C)(C)COC(=O)CCl)nn(Cc4ccc(Cl)cc4)c3c2)cc1C(F)(F)F [QW-836] | – | – | – | – | GPX4 inhibition (GPX4): 50%; GPX4% inhibition at 2.5 μM (GPX4; 4th generation): 45.7 ± 17.5%
20 | CCOc1ccc(-c2ccc3c(C(=O)NC(C)(C)COC(=O)CCl)nn(Cc4ccc(Cl)cc4)c3c2)cc1Cl [QW-840] | – | – | – | – | GPX4% inhibition at 2.5 μM (GPX4; 4th generation): 80.1 ± 11.8%
21 | COc1c(Cl)cc(-c2ccc3c(C(=O)NC(C)(C)COC(=O)CCl)nn(Cc4ccc(Cl)cc4)c3c2)cc1Cl [QW-843] | – | – | – | – | GPX4% inhibition at 2.5 μM (GPX4; 4th generation): 76.8 ± 11.4%
22 | CCCOc1ccc(-c2ccc3c(C(=O)NC(C)(C)COC(=O)CCl)nn(Cc4ccc(Cl)cc4)c3c2)cc1Cl [QW-846] | – | – | – | – | GPX4% inhibition at 2.5 μM (GPX4; 4th generation): 91.5 ± 3.9%
23 | COc1ccc(-c2ccc3c(C(=O)NC(C)(C)C(C)(C)OC(=O)CCl)nn(Cc4cc(Cl)cc(Cl)c4)c3c2)cc1Cl [QW-886] | – | 4.5 | 55.3 µM | 12.4 µM | –

Row | SMILES | GPX4% inhibition at 2.5 μM (GPX4) | Selectivity (HT-1080 cells) | IC50 (HT-1080 cells; [1]) | IC50 (HT-1080 cells; [2]) | also measured
24 | CC(C)(NC(=O)c1nn(Cc2cc(Cl)cc(Cl)c2)c2cc(-c3ccc(N4CCOCC4)c(Cl)c3)ccc12)C(C)(C)OC(=O)CCl [QW-887] | – | >174 | > 40 µM | – | IC50 (HT-1080 cells; without Fer-1, Table 10, read-out: IC50 HT1080): 0.233 µM
25 | COc1ccc(-c2ccc3c(C(=O)NC(C)(C)COC(=O)CCl)nn(Cc4cccc(C(C)=O)c4)c3c2)cc1Cl [QW-892] | – | 1.6 | 37.7 µM | 23.7 µM | –
26 | COc1ccc(-c2ccc3c(C(=O)NC(C)(C)COC(=O)CCl)nn(Cc4ccc(Cl)nc4)c3c2)cc1Cl [QW-897] | – | 7.5 | 9 µM | 1.2 µM | –
27 | CC(C)(COC(=O)CCl)NC(=O)c1nn(Cc2ccc(Cl)nc2)c2cc(-c3ccc(N4CCOCC4)c(Cl)c3)ccc12 [QW-898] | – | 6.8 | 8.1 µM | 1.2 µM | –
28 | CC(C)(COC(=O)CCl)NC(=O)c1c2ccc(-c3ccc(N4CCOCC4)c(Cl)c3)cc2nn1Cc1ccc(Cl)nc1 [QW-904] | – | 3.8 | 2.8 µM | 0.74 µM | ferroptosis selectivity (HT-1080 cells; HT-1080): 3.8
29 | CC(=O)c1cccc(Cn2nc3cc(-c4ccc(N5CCOCC5)c(Cl)c4)ccc3c2C(=O)NC(C)(C)COC(=O)CCl)c1 [QW-911] | – | 3.8 | 5 µM | 1.3 µM | –
30 | CC(C)(COC(=O)CCl)NC(=O)c1c2ccc(Br)cc2nn1Cc1ccc(-c2ccc(N3CCOCC3)c(Cl)c2)cc1 [QW-912] | – | 3.4 | 5.1 µM | 1.5 µM | –
31 | COc1ccc(-c2ccc3c(C(=O)NC(C)(C)CNC(=O)CCl)nn(Cc4cc(Cl)cc(Cl)c4)c3c2)cc1Cl [QW-927] | – | 5.1 | 8.2 µM | 1.6 µM | –
32 | CC(C)(CNC(=O)CCl)NC(=O)c1nn(Cc2cc(Cl)cc(Cl)c2)c2cc(-c3ccc(N4CCOCC4)c(Cl)c3)ccc12 [QW-929] | – | 2.9 | 4.6 µM | 1.6 µM | –
33 | COc1ccc(-c2ccc3c(C(=O)NC(C)(C)COC(=O)CCl)nn(Cc4cc(C(F)(F)F)cc(C(F)(F)F)c4)c3c2)cc1Cl [QW-930] | – | 0.6 | 13 µM | 21.8 µM | –
34 | CC(C)(COC(=O)CCl)NC(=O)c1nn(Cc2cc(C(F)(F)F)cc(C(F)(F)F)c2)c2cc(-c3ccc(N4CCOCC4)c(Cl)c3)ccc12 [QW-931] | – | 6.6 | 34.3 µM | 5.2 µM | –
35 | CC(C)(COC(=O)CCl)NC(=O)c1c2ccc(-c3ccc(N4CCOCC4)c(Cl)c3)cc2nn1Cc1cc(Cl)cc(Cl)c1 [QW-937] | – | 2.7 | 2.7 µM | – | fold reduced activity relative to QW-852 (HT-1080 cells; HT1080): 25 fold; IC50 (HT-1080 cells; read-out: IC50 HT1080): 1 µM
36 | CC(C)(COC(=O)CCl)NC(=O)c1c2ccc(-c3ccc(N4CCOCC4)c(Cl)c3)cc2nn1Cc1cc(C(F)(F)F)cc(C(F)(F)F)c1 [QW-945] | – | 4.0 | 10.7 µM | 2.7 µM | –
37 | COc1ccc(-c2ccc3c(C(=O)NC(C)(C)COC(=O)CCl)nn(Cc4cc(Cl)ccc4Cl)c3c2)cc1Cl [QW-946] | – | 133.4 | 454 µM | 3.4 µM | –
38 | CC(C)(COC(=O)CCl)NC(=O)c1nn(Cc2cc(Cl)cc(Cl)c2)c2cc(Br)ccc12 [QW-954] | – | 2.0 | 11.8 µM | 5.9 µM | –
39 | COc1ccc(-c2ccc3c(C(=O)NC(C)(C)COC(=O)CCl)nn(Cc4cccc(Cl)c4Cl)c3c2)cc1Cl [QW-958] | – | 13.7 | 31.6 µM | 2.3 µM | –
40 | CC(C)(COC(=O)CCl)NC(=O)c1nn(Cc2cccc(Cl)c2Cl)c2cc(-c3ccc(N4CCOCC4)c(Cl)c3)ccc12 [QW-959] | – | 508.5 | 610 µM | 1.2 µM | –
41 | CC(C)(COC(=O)CCl)NC(=O)c1nn(Cc2ccc(Cl)c(Cl)c2)c2cc(-c3ccc(N4CCOCC4)c(Cl)c3)ccc12 [QW-968] | – | – | > 40 µM | > 40 µM | –
42 | COc1ccc(-c2ccc3c(C(=O)NC(C)(C)COC(=O)CCl)n(Cc4ccc(Cl)c(Cl)c4)nc3c2)cc1Cl [QW-972] | – | 1.5 | 5.5 µM | 3.6 µM | –
43 | CC(C)(COC(=O)CCl)NC(=O)c1c2ccc(-c3ccc(N4CCOCC4)c(Cl)c3)cc2nn1Cc1ccc(Cl)c(Cl)c1 [QW-973] | – | 1.4 | 5.8 µM | 4.2 µM | –
44 | COc1ccc(-c2ccc3c(c2)c(C(=O)NC(C)(C)COC(=O)CCl)nn3Cc2cc(Cl)cc(Cl)c2)cc1Cl [QW-979] | – | 1.8 | 12.5 µM | 6.9 µM | –
45 | CC(C)(COC(=O)CCl)NC(=O)c1nn(Cc2cc(Cl)cc(Cl)c2)c2ccc(-c3ccc(N4CCOCC4)c(Cl)c3)cc12 [QW-980] | – | 1.5 | 8.4 µM | 5.5 µM | –
